Source: patent US20030198661A1, “Antioxidant compositions and methods for companion animals” (MARS INCORPORATED, priority 2000, published 2003)

Assays:
rabies = format: in vivo; details: healthy adult cats; once daily oral supplement at Table 13 levels
[1] = Plasma vitamin C in dogs after dietary vitamin C; format: in vivo
Description: Samples are prepared under subdued lighting at all times.
A preferred minimal dose of vitamin C to achieve an increase in plasma in cats is 20 mg/400 kcal. A preferred minimal dose of vitamin C tested to achieve an increase in plasma in dogs was 27 mg/400 kcal.

[2] = in vivo
[3] = Plasma α-tocopherol response to supplementation in healthy dogs (Example 10); format: in vivo
Text: Vitamin E is the collective name for 8 naturally occurring molecules, 4 tocopherols and 4 tocotrienols. The biological activity of the various forms roughly correlates with their antioxidant activities with the order of relative peroxyl scavenging reactivities of α>β>γ>δ-tocopherol. […] The minimum requirement for vitamin E in adult dogs has been established as 2.5 IU α-tocopherol/400 kcal diet (Nutrient Requirements of Dogs (1985) National Research Council (U.S.) National Academy Press Washington D.C. ISBN:0-309-03496-5). Prepared petfoods typically contain up to 10 times this amount but across the normal ranges of vitamin E in petfoods, plasma concentrations tend to be constant. In a study to evaluate the impact of supplementary vitamin E on the plasma response, 6 adult dogs, maintained on a nutritionally complete (see diet reference section) canned dog food (vitamin E content 8.2 mg/400 kcal (8.21U/400 kcal), were offered a supplement equivalent to 100 IU vitamin E/day for 6 weeks. A control group of 6 dogs was maintained under the same conditions but received no dietary supplement. Plasma α-tocopherol was monitored during, and for 4 weeks following, the supplementation period.

[4] = dog, in vivo
[5] = cats; oral α-tocopherol acetate supplements

CC1=C(/C=C/C(C)=C/C=C/C(C)=C/C=C/C=C(C)/C=C/C=C(C)/C=C/C2=C(C)CCCC2(C)C)C(C)(C)CCC1 [beta-carotene]
anti-rabies antibody response to vaccination versus unsupplemented controls (rabies): greater

NCCS(=O)(=O)O [taurine, aminoethylsulfonic acid]
anti-rabies antibody response to vaccination versus unsupplemented controls (rabies): greater

O=C1O[C@H]([C@@H](O)CO)C(O)=C1O [Vitamin C, L-ascorbic acid]
minimal dose of vitamin C tested to achieve an increase in plasma [1]: 27 mg/400 kcal
anti-rabies antibody response to vaccination versus unsupplemented controls (rabies): greater
plasma vitamin C levels versus baseline within 7 days [2]: significantly increased

Cc1c(C)c2c(c(C)c1O)CC[C@@](C)(CCC[C@H](C)CCC[C@H](C)CCCC(C)C)O2 [α-tocopherol]
Plasma α-tocopherol ([3]; Test group (100 IU vitamin E/day for 6 weeks), Baseline): 15.9
Plasma α-tocopherol ([3]; Test group (100 IU vitamin E/day), Day 28): 32.6
Plasma α-tocopherol ([3]; Test group (100 IU vitamin E/day), Day 42): 35.4
Plasma α-tocopherol ([3]; Test group, Day 70 (day 28 post-supplementation)): 28.2 ± 6.87
individual plasma α-tocopherol levels, median [4]: 21.1 mg/L

CC(C)=CCC/C(C)=C/C=C/C(C)=C/C=C/C(C)=C/C=C/C=C(C)/C=C/C=C(C)/C=C/C=C(\C)CCC=C(C)C [lycopene]
anti-rabies antibody response to vaccination versus unsupplemented controls (rabies): particularly marked

CC(=O)Oc1c(C)c(C)c2c(c1C)CCC(C)(CCC[C@H](C)CCC[C@H](C)CCCC(C)C)O2 (stereo partly drawn) [Vitamin E, alpha-tocopherol acetate]
anti-rabies antibody response to vaccination versus unsupplemented controls (rabies): greater
plasma vitamin E levels following oral supplementation [5]: significantly increased
